# Test results published in patent US7998987B2, “Inhibitors of c-Met and uses thereof” (Vertex Pharmaceuticals Incorporated, priority 2005, dated 2011).
# Biological target: c-Met (Homo sapiens, UniProt P08581)
# Assay: Ki determination for the inhibition of c-Met kinase activity (standard coupled enzyme system)
# Assay type: biochemical
# Conditions: coupled enzyme system, 200 μM ATP, 80 nM c-Met, 30° C.; read-out: c-Met Ki
# Protocol: Ki Determination for the Inhibition of c-Met
# Reactions were carried out in a solution containing 100 mM HEPES (pH 7.5), 10 mM MgCl2, 25 mM NaCl, 300 μM NADH, 1 mM DTT, and 1.5% DMSO. Final substrate concentrations in the assay were 200 μM ATP (Sigma Chemicals, St Louis, Mo.) and 10 μM polyGluTyr (Sigma Chemical Company, St. Louis). Reactions were carried out at 30° C. and 80 nM c-Met. Final concentrations of the components of the coupled enzyme system were 2.5 mM phosphoenolpyruvate, 300 μM NADH, 30 μg/ml pyruvate kinase and 10 μg/ml lactate dehydrogenase.
# An assay stock buffer solution was prepared containing all of the reagents listed above with the exception of ATP and a test compound of the present invention. […] The reaction was initiated by the addition of 20 μL of ATP (final concentration 200 μM). Rates of reaction were obtained using a Molecular Devices Spectramax plate reader (Sunnyvale, Calif.) over 10 minutes at 30° C. The Ki values were determined from the rate data as a function of inhibitor concentration.
# c-Met, sequence (P08581 25-1390): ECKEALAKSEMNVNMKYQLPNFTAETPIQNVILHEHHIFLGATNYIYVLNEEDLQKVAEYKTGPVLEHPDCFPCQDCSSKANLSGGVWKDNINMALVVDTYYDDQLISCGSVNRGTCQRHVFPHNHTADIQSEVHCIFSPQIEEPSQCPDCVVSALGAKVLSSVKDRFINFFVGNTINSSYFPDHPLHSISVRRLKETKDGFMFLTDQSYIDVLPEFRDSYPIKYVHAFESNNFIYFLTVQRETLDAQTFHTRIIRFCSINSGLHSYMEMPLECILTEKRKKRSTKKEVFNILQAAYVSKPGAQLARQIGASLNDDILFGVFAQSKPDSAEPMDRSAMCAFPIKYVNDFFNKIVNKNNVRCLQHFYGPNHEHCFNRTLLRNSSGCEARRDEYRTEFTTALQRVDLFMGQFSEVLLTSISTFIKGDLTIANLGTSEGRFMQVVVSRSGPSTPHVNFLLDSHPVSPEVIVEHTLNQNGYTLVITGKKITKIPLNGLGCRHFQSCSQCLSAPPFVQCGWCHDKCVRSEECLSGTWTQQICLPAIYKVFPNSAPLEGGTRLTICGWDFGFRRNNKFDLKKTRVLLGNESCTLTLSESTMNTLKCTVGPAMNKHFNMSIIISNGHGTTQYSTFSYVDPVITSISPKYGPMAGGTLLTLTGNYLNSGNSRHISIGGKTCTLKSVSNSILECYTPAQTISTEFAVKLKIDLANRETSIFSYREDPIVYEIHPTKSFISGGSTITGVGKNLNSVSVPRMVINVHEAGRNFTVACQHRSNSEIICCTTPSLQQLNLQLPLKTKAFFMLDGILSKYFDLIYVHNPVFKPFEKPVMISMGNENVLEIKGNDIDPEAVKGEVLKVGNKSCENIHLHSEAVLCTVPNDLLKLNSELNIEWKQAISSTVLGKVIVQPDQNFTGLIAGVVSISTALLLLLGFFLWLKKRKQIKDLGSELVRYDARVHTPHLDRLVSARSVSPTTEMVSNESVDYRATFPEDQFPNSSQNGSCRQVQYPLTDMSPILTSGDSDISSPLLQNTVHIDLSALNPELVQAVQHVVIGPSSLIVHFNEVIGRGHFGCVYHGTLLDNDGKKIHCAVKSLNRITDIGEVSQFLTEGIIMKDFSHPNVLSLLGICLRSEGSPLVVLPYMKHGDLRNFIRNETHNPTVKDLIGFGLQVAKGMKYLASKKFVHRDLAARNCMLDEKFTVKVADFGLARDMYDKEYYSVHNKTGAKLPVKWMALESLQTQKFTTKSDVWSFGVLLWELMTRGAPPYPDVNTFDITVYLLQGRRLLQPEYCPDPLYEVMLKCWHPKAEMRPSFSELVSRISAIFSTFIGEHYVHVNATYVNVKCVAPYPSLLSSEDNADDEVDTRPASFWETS
row,Ki [nM],SMILES
1,> 2000,c1csc(C2=Nn3c(Cc4ccncc4)nnc3SC2)c1 [Compound 545]
2,> 2000,COc1cc(OC)c(NCc2nnc3ccc(Nc4cccc(Cl)c4)nn23)cc1Cl [Compound 345]
3,> 2000,Nc1cccc(Cc2nnc3ccc(Nc4cccc(Cl)c4)nn23)c1 [Compound 317]
4,100 to 2000,Clc1cccc(Nc2ccc3nnc(COc4cccnc4)n3n2)c1 [Compound 371]
5,< 100,C[C@H](c1ccc(O)cc1)c1nnc2ccc(Nc3cccc(Cl)c3)nn12 [Compound 319]
6,100 to 2000,Clc1cccc(Nc2ccc3nnc(CNc4ccc5cn[nH]c5c4)n3n2)c1 [Compound 487]
7,100 to 2000,CC(=O)Nc1cccc(OCc2nnc3ccc(Nc4cccc(Cl)c4)nn23)c1 [Compound 468]
8,< 100,C[C@@H](c1ccc(O)cc1)c1nnc2ccc(Nc3ccnc(Cl)c3)nn12 [Compound 506]
9,100 to 2000,C[C@@H](c1ccc(O)cc1)c1nnc2ccc(Sc3nc[nH]n3)nn12 [Compound 508]
10,< 100,O=c1ccc(Cc2nnc3ccc(Nc4cccc(Cl)c4)nn23)c[nH]1 [Compound 502]
11,> 2000,Nc1cc(OCc2nnc3ccc(Nc4cccc(Cl)c4)nn23)c2ccccc2n1 [Compound 466]
12,< 100,O=c1[nH]ccc2c1ccn2Cc1nnc2ccc(Nc3cccc(Cl)c3)nn12 [Compound 428]
13,100 to 2000,C[C@@H](c1ccc(O)cc1)c1nnc2ccc(Nc3ccc(F)nc3)nn12 [Compound 510]
14,< 100,Oc1ccc(Cc2nnc3n2N=C(c2ccsc2)CS3)cc1 [Compound 541]
15,> 2000,Cc1nc2cc(OCc3nnc4ccc(Nc5cccc(Cl)c5)nn34)ccc2s1 [Compound 431]
16,100 to 2000,Oc1cccc(NCc2nnc3ccc(Nc4cccc(Cl)c4)nn23)c1 [Compound 338]
17,100 to 2000,NC(=O)c1ccc(OCc2nnc3ccc(Nc4cccc(Cl)c4)nn23)cc1 [Compound 470]
18,100 to 2000,Oc1ccc(Cc2nnc3ccc(NC4CCOCC4)nn23)cc1 [Compound 318]

row,Ki [nM],SMILES
1,> 2000,CC(=O)N[C@H]1CCCC[C@@H]1Nc1ccc2nnc([C@@H](C)c3ccc(O)cc3)n2n1 [Compound 448]
2,< 100,COc1ccc(Cc2nnc3ccc(Nc4cccc(Cl)c4)nn23)c(Cl)c1 [Compound 440]
3,> 2000,Oc1cccc2ccc(NCc3nnc4ccc(Nc5cccc(Cl)c5)nn34)nc12 [Compound 454]
4,100 to 2000,Fc1ccc(OCc2nnc3ccc(Nc4cccc(Cl)c4)nn23)cn1 [Compound 453]
5,100 to 2000,Oc1ccc(OCc2nnc3ccc(Nc4cccc(Cl)c4)nn23)cc1 [Compound 391]
6,100 to 2000,C[C@@H](c1ccc(O)cc1)c1nnc2ccc(Nc3ccncn3)nn12 [Compound 498]
7,< 100,Oc1ccc(Cc2nnc3n2N=C(c2ccc4c(c2)OCCO4)CS3)cc1 [Compound 533]
8,> 2000,Oc1ccccc1SCc1nnc2ccc(Nc3cccc(Cl)c3)nn12 [Compound 406]
9,> 2000,O=C(Cc1nnc2ccc(Nc3cccc(Cl)c3)nn12)c1cccnc1 [Compound 316]
10,100 to 2000,O=C(Cc1ccccc1)N1CCC(Nc2ccc3nnc(Cc4ccc(O)cc4)n3n2)CC1 [Compound 325]
11,> 2000,COc1ccc(OC)c(NCc2nnc3ccc(Nc4cccc(Cl)c4)nn23)c1 [Compound 353]
12,100 to 2000,COc1cccc(NCc2nnc3ccc(Nc4cccc(Cl)c4)nn23)c1 [Compound 336]
13,> 2000,Oc1ccc(NCc2nnc3ccc(Nc4cccc(Cl)c4)nn23)c2cccnc12 [Compound 352]
14,100 to 2000,N#Cc1ccc(Cc2nnc3ccc(Nc4cccc(Cl)c4)nn23)cc1 [Compound 474]
15,100 to 2000,Fc1ccc(Cc2nnc3n2N=C(c2cccs2)CS3)cc1 [Compound 546]
16,100 to 2000,C[C@@H](Nc1ccc2nnc(Cc3ccc(O)cc3)n2n1)c1ccccc1 [Compound 313]
17,100 to 2000,Clc1cccc(Nc2ccc3nnc(Cc4ccc(Cl)nc4)n3n2)c1 [Compound 354]
18,> 2000,Clc1cccc(Nc2ccc3nnc(Cc4noc5ccccc45)n3n2)c1 [Compound 438]

# Second part, the molecule before the results:
row,SMILES,Ki [nM]
1,COc1cccc(Nc2ccc3nnc(Cc4ccc(O)c(F)c4)n3n2)c1 [Compound 293],100 to 2000
2,Oc1ccc(Cc2nnc3ccc(Nc4cc(F)cc(F)c4)nn23)cc1F [Compound 298],< 100
3,C[C@@H](Nc1ccc2nnc(Cc3ccc(O)cc3)n2n1)C(C)(C)C [Compound 309],100 to 2000
4,OCCc1cccc(Nc2ccc3nnc(Cc4ccc(O)c(Cl)c4)n3n2)c1 [Compound 300],100 to 2000

# Same assay, conditions: coupled enzyme system, 200 μM ATP, 10 μM polyGluTyr, 80 nM c-Met, 30° C.; read-out: c-Met Ki
row,Ki [nM],SMILES
1,> 2000,COc1cc(Cc2nnc3sc(Nc4ccccc4OC)nn23)ccc1O [Compound 33]
2,100 to 2000,COc1cccc(N2CCN(c3ccc4nnc(Cc5ccc(O)cc5)n4n3)CC2)c1 [Compound 194]
3,100 to 2000,Oc1ccc(Cc2nnc3sc(Nc4cccnc4)nn23)cc1F [Compound 83]
4,100 to 2000,OCCc1cccc(Nc2ccc3nnc(Cc4ccc(O)c(F)c4)n3n2)c1 [Compound 265]
5,> 2000,COc1ccc(Cc2nnc3sc(CNC(C)=O)nn23)cc1 [Compound 23]
6,< 100,Oc1ccc(Cc2nnc3ccc(Nc4cc(F)cc(F)c4)nn23)cc1 [Compound 250]
7,< 100,Oc1ccc(Cc2nnc3ccc(Nc4ccccc4)nn23)cc1 [Compound 178]
8,< 100,C[C@@H](c1ccc(O)cc1)c1nnc2sc(Nc3ccc(F)c(Cl)c3)nn12 [Compound 159]
9,< 100,CC(c1ccc(O)cc1)c1nnc2sc(Nc3cc(F)cc(F)c3)nn12 (stereo not drawn) [Compound 133]
10,> 2000,Oc1ccc(Cc2nnc3ccc(N[C@@H]4C[C@H]4c4ccccc4)nn23)cc1 [Compound 192]
11,> 2000,Oc1ccc(Cc2nnc3ccc(N4CCCC4c4ccc(F)cc4)nn23)cc1 (stereo not drawn) [Compound 202]
12,< 100,COc1cccc(Nc2nn3c(C(C)c4ccc(O)cc4)nnc3s2)c1 (stereo not drawn) [Compound 37]
13,100 to 2000,Oc1ccc(Cc2nnc3sc(Nc4ccccc4Cl)nn23)cc1F [Compound 79]
14,< 100,C[C@@H](c1ccc(OC(=O)[C@@H](C)N)cc1)c1nnc2sc(Nc3cccc(F)c3)nn12 [Compound 166]
15,100 to 2000,CNC(=O)c1cccc(Nc2ccc3nnc(Cc4ccc(O)cc4)n3n2)c1 [Compound 232]
16,100 to 2000,Clc1ccccc1Nc1nn2c(Cc3ccc4c(c3)OCO4)nnc2s1 [Compound 68]
17,< 100,Oc1ccc(Cc2nnc3sc(Nc4cccc(F)c4)nn23)cc1Cl [Compound 97]
18,< 100,Oc1ccc(Cc2nnc3sc(Nc4cccc(F)c4F)nn23)cc1Cl [Compound 128]
19,100 to 2000,CC(C)C(CO)Nc1ccc2nnc(Cc3ccc(O)cc3)n2n1 (stereo not drawn) [Compound 282]
20,100 to 2000,COc1ccc(Cc2nnc3ccc(Nc4cccc(CCO)c4)nn23)cc1 [Compound 266]
21,< 100,Oc1ccc(Cc2nnc3ccc(NC4CC5CCC4C5)nn23)cc1 (stereo not drawn) [Compound 275]
22,< 100,Oc1ccc(Cc2nnc3sc(Nc4cccc(F)c4)nn23)cc1F [Compound 108]

row,Ki [nM],SMILES
1,< 100,Oc1ccc(Cc2nnc3sc(Nc4cc(F)cc(F)c4)nn23)cc1Cl [Compound 104]
2,100 to 2000,Cc1ccc(Nc2nn3c(Cc4ccc(O)cc4)nnc3s2)cc1Cl [Compound 73]
3,100 to 2000,C[C@@H](Nc1ccc2nnc(Cc3ccc(O)cc3)n2n1)C1CCCCC1 [Compound 189]
4,> 2000,CC(c1ccc(O)cc1)c1nnc2sc(C(N)=O)nn12 (stereo not drawn) [Compound 88]
5,> 2000,CN(C)c1nn2c(Cc3ccc(O)cc3)nnc2s1 [Compound 41]
6,100 to 2000,COc1ccccc1Nc1nn2c(Cc3ccc(O)c(F)c3)nnc2s1 [Compound 30]
7,100 to 2000,COc1ccccc1Nc1nn2c(Cc3ccc4c(c3)OCO4)nnc2s1 [Compound 28]
8,100 to 2000,CC(O)c1cccc(Nc2ccc3nnc(Cc4ccc(O)c(F)c4)n3n2)c1 (stereo not drawn) [Compound 256]
9,100 to 2000,COc1ccc(Cc2nnc3ccc(Nc4cccc(CO)c4)nn23)cc1 [Compound 262]
10,> 2000,CC(Oc1ccc2ncccc2c1)c1nnc2sc(Nc3cccc(Cl)c3)nn12 (stereo not drawn) [Compound 163]
11,< 100,Fc1cc(F)cc(Nc2ccc3nnc(Cc4ccc5c(c4)OCO5)n3n2)c1 [Compound 253]
12,< 100,C[C@@H](c1ccc(O)cc1)c1nnc2sc(Nc3cncc(Cl)c3)nn12 [Compound 162]
13,< 100,COc1ccc(Nc2nn3c(C(C)c4ccc(O)cc4)nnc3s2)cc1 (stereo not drawn) [Compound 40]
14,100 to 2000,Oc1cccc(Cc2nnc3sc(Nc4cc(F)cc(F)c4)nn23)c1 [Compound 124]
15,100 to 2000,c1ccc(-c2ccc3nnc(Cc4ccc5c(c4)OCO5)n3n2)cc1 [Compound 207]
16,< 100,CC(c1ccc(O)cc1)c1nnc2sc(Nc3cccc(C(F)(F)F)c3)nn12 (stereo not drawn) [Compound 138]
17,> 2000,NC(=O)[C@H]1CCC[C@H]1Nc1ccc2nnc(Cc3ccc(O)cc3)n2n1 [Compound 203]
18,< 100,Cc1ccc(F)cc1Nc1nn2c(Cc3ccc(O)cc3)nnc2s1 [Compound 75]
19,100 to 2000,CC(C)C[C@@H](CO)Nc1ccc2nnc(Cc3ccc(O)cc3)n2n1 [Compound 188]
20,< 100,CC(C)Oc1cccc(Nc2nn3c([C@@H](C)c4ccc(O)cc4)nnc3s2)c1 [Compound 173]
21,< 100,Oc1ccc(Cc2nnc3sc(Nc4ccccc4Cl)nn23)cc1 [Compound 78]
22,100 to 2000,Fc1cc(F)cc(Nc2ccc3nnc(Cc4ccncc4)n3n2)c1 [Compound 254]
